Tested on in one data set: not listed separately
Nature of the data set: DRUGMATRIX: Sigma2 radioligand binding (ligand: [3H] Ifenprodil). It is filed as cell membranes, Rattus norvegicus, Wistar, Brain, Membrane. The settings on record: Not Active = under 50% inhibition at 10 µM.
Sodium-dependent dopamine transporter, sequence (Q01959 whole entry): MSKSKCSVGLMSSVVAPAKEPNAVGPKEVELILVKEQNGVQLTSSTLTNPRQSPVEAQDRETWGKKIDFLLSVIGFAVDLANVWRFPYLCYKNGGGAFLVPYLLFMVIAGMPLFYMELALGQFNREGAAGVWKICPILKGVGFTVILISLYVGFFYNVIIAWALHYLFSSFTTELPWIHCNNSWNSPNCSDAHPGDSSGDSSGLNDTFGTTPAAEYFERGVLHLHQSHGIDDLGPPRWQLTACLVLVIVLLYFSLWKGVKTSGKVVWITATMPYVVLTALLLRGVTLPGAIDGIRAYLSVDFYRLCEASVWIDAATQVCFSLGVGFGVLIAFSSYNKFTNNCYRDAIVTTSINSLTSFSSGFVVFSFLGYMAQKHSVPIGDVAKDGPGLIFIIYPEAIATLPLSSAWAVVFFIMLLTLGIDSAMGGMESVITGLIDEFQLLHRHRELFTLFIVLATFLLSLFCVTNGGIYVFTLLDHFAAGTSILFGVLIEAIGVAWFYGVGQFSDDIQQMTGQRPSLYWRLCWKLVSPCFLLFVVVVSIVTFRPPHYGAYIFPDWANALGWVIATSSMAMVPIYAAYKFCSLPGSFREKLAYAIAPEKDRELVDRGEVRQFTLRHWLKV
The term IC50 denotes the point on the concentration scale where inhibition reaches its midpoint. The Ki is a dissociation constant, usually derived from enzyme kinetics or from competition with a known ligand. Take `CC(C)c1nc(CN(C)C(=O)N[C@H](C(=O)N[C@@H](Cc2ccccc2)C[C@H](O)[C@H](Cc2ccccc2)NC(=O)OCc2cncs2)C(C)C)cs1` [RITONAVIR]: the IC50 result is listed as “Not Active” and the Ki entry is “Not Active”.
Turning to `CC(C)(C)c1ccc(C(O)CCCN2CCC(C(O)(c3ccccc3)c3ccccc3)CC2)cc1` (configuration not stated) [TERFENADINE], the IC50 entry was “Not Active” and the Ki result is listed as “Not Active”.
Regarding `C[C@@H](N)[C@H]1CC[C@H](C(=O)Nc2ccncc2)CC1` [Y-27632], the IC50 entry is listed as “Not Active” and the inhibition constant Ki result is reported as “Not Active”.

The same data set, now with this note: Not Active = under 50% inhibition at 10 µM; read-out: IC50.
For `CC(=O)N1CCN(c2ccc(OCC3COC(Cn4ccnc4)(c4ccc(Cl)cc4Cl)O3)cc2)CC1` (configuration not stated) [KETOCONAZOLE], the IC50 stood at 15.9 µM.

The same data set, now with this note: Not Active = under 50% inhibition at 10 µM; read-out: Ki.
Turning to `CC(=O)N1CCN(c2ccc(OCC3COC(Cn4ccnc4)(c4ccc(Cl)cc4Cl)O3)cc2)CC1` (configuration not stated) [KETOCONAZOLE], the Ki stood at 9.79 µM.

Another data set addresses T1, 3-hydroxy-3-methylglutaryl-coenzyme A reductase (Homo sapiens, UniProt P04035).
T1 sequence (P04035 whole entry): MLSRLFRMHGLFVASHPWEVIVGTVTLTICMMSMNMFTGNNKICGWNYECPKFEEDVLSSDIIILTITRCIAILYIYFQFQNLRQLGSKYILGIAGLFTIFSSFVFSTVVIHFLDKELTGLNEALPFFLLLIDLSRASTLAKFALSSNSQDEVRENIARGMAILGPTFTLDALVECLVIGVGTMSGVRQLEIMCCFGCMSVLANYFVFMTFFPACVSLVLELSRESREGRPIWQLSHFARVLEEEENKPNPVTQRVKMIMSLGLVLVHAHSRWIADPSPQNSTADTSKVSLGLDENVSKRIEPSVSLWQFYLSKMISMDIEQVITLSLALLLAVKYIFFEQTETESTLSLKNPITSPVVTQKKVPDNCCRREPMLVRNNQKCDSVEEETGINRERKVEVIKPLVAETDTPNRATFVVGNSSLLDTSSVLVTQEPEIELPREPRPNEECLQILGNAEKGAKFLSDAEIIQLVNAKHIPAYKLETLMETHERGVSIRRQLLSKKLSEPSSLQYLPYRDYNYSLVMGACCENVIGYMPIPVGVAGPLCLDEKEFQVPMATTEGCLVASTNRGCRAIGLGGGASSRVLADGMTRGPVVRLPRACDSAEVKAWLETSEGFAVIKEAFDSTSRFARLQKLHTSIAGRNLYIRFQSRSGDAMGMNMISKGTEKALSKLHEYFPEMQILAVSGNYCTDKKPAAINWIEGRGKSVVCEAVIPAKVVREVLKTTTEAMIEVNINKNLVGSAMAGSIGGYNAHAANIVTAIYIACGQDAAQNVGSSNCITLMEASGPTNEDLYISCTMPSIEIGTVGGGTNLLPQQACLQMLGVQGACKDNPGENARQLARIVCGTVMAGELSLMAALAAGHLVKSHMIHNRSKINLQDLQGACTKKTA
Also on record: species or system Escherichia coli.
Settings: not given
In the case of `CC(=O)N1CCN(c2ccc(OCC3COC(Cn4ccnc4)(c4ccc(Cl)cc4Cl)O3)cc2)CC1` (configuration not stated) [KETOCONAZOLE], the IC50 result is “Not Active”.
The same measure, in the same setting: for `CC(C)c1nc(CN(C)C(=O)N[C@H](C(=O)N[C@@H](Cc2ccccc2)C[C@H](O)[C@H](Cc2ccccc2)NC(=O)OCc2cncs2)C(C)C)cs1` [RITONAVIR] the value was “Not Active”.
Same read-out and setting: the entry for `CC(C)(C)c1ccc(C(O)CCCN2CCC(C(O)(c3ccccc3)c3ccccc3)CC2)cc1` (configuration not stated) [TERFENADINE] is “Not Active”; for `C[C@@H](N)[C@H]1CC[C@H](C(=O)Nc2ccncc2)CC1` [Y-27632] it is “Not Active”.

Tested on in the next data set: not listed separately
Nature of the data set: DRUGMATRIX: GABAA, Flunitrazepam, Central radioligand binding (ligand: [3H] Flunitrazepam). It is filed as cell membranes, Rattus norvegicus, Wistar, Brain, Membrane. The conditions noted are these: Not Active = under 50% inhibition at 10 µM.
On to `CC(=O)N1CCN(c2ccc(OCC3COC(Cn4ccnc4)(c4ccc(Cl)cc4Cl)O3)cc2)CC1` (configuration not stated) [KETOCONAZOLE], for which the IC50 result is reported as “Not Active” and the Ki result is reported as “Not Active”.
Turning to `CC(C)c1nc(CN(C)C(=O)N[C@H](C(=O)N[C@@H](Cc2ccccc2)C[C@H](O)[C@H](Cc2ccccc2)NC(=O)OCc2cncs2)C(C)C)cs1` [RITONAVIR], the IC50 result is reported as “Not Active” and the Ki result was “Not Active”.
Regarding `CC(C)(C)c1ccc(C(O)CCCN2CCC(C(O)(c3ccccc3)c3ccccc3)CC2)cc1` (configuration not stated) [TERFENADINE], the IC50 result is “Not Active” and the Ki entry is recorded as “Not Active”.
Take `C[C@@H](N)[C@H]1CC[C@H](C(=O)Nc2ccncc2)CC1` [Y-27632]: the IC50 entry is reported as “Not Active” and the Ki entry was “Not Active”.

The next data set has as its target Sodium-dependent dopamine transporter (Homo sapiens, UniProt Q01959). Description: DRUGMATRIX: Dopamine Transporter radioligand binding (ligand: [125I] RTI-55). It is filed as cell membranes, CHO-K1, Membrane. The conditions noted are these: Not Active = under 50% inhibition at 10 µM; read-out: IC50.
Turning to `CC(=O)N1CCN(c2ccc(OCC3COC(Cn4ccnc4)(c4ccc(Cl)cc4Cl)O3)cc2)CC1` (configuration not stated) [KETOCONAZOLE], the IC50 stood at 23.5 µM.

The same data set, now with this note: Not Active = under 50% inhibition at 10 µM; read-out: Ki.
As for `CC(=O)N1CCN(c2ccc(OCC3COC(Cn4ccnc4)(c4ccc(Cl)cc4Cl)O3)cc2)CC1` (configuration not stated) [KETOCONAZOLE], the Ki came to 18.7 µM.

The data set is the same for the next values; noted with them: cho-k1; Not Active = under 50% inhibition at 10 µM.
In the case of `CC(C)c1nc(CN(C)C(=O)N[C@H](C(=O)N[C@@H](Cc2ccccc2)C[C@H](O)[C@H](Cc2ccccc2)NC(=O)OCc2cncs2)C(C)C)cs1` [RITONAVIR], the IC50 entry is given as “Not Active”.
Same read-out and setting: the entry for `C[C@@H](N)[C@H]1CC[C@H](C(=O)Nc2ccncc2)CC1` [Y-27632] is “Not Active”.

The next data set concerns the target T2, C-C chemokine receptor type 4 (Homo sapiens, UniProt P51679). Also: in other assays of this panel Not Active means under 50% inhibition at 10 µM.
T2 sequence (P51679 whole entry): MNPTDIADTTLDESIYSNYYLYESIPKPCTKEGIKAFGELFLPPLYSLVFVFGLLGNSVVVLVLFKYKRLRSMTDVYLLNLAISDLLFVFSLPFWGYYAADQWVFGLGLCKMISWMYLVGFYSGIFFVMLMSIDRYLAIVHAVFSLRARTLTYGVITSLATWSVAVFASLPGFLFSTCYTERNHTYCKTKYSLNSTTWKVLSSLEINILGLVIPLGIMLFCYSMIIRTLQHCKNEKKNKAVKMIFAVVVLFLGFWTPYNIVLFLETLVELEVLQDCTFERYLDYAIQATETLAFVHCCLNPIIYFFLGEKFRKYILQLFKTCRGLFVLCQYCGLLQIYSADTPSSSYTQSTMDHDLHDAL
It is filed as cell membranes, Membrane. The conditions noted are these: chem-1.
For the compound `CC(=O)N1CCN(c2ccc(OCC3COC(Cn4ccnc4)(c4ccc(Cl)cc4Cl)O3)cc2)CC1` (configuration not stated) [KETOCONAZOLE], the IC50 result is “Not Active”.
Same read-out and setting: the entry for `CC(C)c1nc(CN(C)C(=O)N[C@H](C(=O)N[C@@H](Cc2ccccc2)C[C@H](O)[C@H](Cc2ccccc2)NC(=O)OCc2cncs2)C(C)C)cs1` [RITONAVIR] is “Not Active”; for `CC(C)(C)c1ccc(C(O)CCCN2CCC(C(O)(c3ccccc3)c3ccccc3)CC2)cc1` (configuration not stated) [TERFENADINE] it is “Not Active”.
Take `C[C@@H](N)[C@H]1CC[C@H](C(=O)Nc2ccncc2)CC1` [Y-27632]: the 50% inhibitory concentration (IC50) entry is “Not Active”.

The target of the next data set is Epidermal growth factor receptor (Homo sapiens, UniProt P00533). Nature of the data set: DRUGMATRIX: Protein Tyrosine Kinase, EGF Receptor enzyme inhibition (substrate: Poly(Glu:Tyr)). It is filed as cell-based, Insect cells. The settings on record: Not Active = under 50% inhibition at 10 µM; read-out: IC50.
Epidermal growth factor receptor, sequence (P00533 whole entry): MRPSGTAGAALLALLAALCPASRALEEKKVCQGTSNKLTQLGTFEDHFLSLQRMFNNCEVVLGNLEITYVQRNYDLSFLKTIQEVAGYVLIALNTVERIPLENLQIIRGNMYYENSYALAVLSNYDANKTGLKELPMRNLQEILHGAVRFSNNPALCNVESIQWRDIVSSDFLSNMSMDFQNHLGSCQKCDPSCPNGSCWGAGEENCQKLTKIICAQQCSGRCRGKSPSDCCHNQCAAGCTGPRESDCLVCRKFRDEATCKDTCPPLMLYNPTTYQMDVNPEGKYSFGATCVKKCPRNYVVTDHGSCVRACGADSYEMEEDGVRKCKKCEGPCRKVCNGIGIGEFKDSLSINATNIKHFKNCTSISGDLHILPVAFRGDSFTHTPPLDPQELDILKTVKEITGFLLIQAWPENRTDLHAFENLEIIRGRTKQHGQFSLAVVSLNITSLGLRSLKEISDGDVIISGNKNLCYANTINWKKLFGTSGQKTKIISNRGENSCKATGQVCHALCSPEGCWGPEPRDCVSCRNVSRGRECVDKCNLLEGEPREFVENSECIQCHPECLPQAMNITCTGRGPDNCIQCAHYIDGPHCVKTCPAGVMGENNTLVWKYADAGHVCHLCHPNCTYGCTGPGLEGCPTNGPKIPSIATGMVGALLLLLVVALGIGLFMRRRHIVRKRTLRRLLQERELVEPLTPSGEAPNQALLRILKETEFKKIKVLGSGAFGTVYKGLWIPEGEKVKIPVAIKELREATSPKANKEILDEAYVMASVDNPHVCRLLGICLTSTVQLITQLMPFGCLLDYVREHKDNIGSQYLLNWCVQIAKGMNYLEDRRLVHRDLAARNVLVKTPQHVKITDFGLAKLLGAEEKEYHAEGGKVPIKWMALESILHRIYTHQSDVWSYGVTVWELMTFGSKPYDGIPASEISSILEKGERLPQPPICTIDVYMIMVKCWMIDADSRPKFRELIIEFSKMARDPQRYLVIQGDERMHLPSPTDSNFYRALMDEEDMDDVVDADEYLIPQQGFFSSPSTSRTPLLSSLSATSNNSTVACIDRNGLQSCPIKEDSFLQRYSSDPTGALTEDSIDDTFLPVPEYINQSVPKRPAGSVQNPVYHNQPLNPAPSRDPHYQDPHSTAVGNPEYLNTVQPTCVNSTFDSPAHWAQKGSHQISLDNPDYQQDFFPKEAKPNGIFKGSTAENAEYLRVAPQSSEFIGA
Consider `CC(C)(C)c1ccc(C(O)CCCN2CCC(C(O)(c3ccccc3)c3ccccc3)CC2)cc1` (configuration not stated) [TERFENADINE], for which the IC50 came out at 3.57 µM.

Staying with this data set, now noted: insect cells; Not Active = under 50% inhibition at 10 µM.
As to `CC(=O)N1CCN(c2ccc(OCC3COC(Cn4ccnc4)(c4ccc(Cl)cc4Cl)O3)cc2)CC1` (configuration not stated) [KETOCONAZOLE], the IC50 entry is given as “Not Active”.
Same read-out and setting: for `CC(C)c1nc(CN(C)C(=O)N[C@H](C(=O)N[C@@H](Cc2ccccc2)C[C@H](O)[C@H](Cc2ccccc2)NC(=O)OCc2cncs2)C(C)C)cs1` [RITONAVIR] the value was “Not Active”.

In the next data set the target is Melanocortin receptor 4 (Homo sapiens, UniProt P32245). The format is cell membranes, Membrane. The conditions noted are these: hek293. Also: in other assays of this panel Not Active means under 50% inhibition at 10 µM.
Melanocortin receptor 4, sequence (P32245 whole entry): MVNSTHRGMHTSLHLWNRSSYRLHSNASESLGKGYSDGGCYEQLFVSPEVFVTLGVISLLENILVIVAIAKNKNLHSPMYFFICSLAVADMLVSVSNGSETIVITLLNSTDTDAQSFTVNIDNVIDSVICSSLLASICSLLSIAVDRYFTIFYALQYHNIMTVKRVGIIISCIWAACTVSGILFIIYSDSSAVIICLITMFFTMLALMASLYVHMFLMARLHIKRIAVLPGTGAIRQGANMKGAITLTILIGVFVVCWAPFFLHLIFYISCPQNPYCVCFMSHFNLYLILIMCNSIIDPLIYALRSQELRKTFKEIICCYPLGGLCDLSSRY
As for `CC(=O)N1CCN(c2ccc(OCC3COC(Cn4ccnc4)(c4ccc(Cl)cc4Cl)O3)cc2)CC1` (configuration not stated) [KETOCONAZOLE], the IC50 entry is listed as “Not Active”.
Still for that read-out and setting: for `CC(C)c1nc(CN(C)C(=O)N[C@H](C(=O)N[C@@H](Cc2ccccc2)C[C@H](O)[C@H](Cc2ccccc2)NC(=O)OCc2cncs2)C(C)C)cs1` [RITONAVIR] the value was “Not Active”; for `CC(C)(C)c1ccc(C(O)CCCN2CCC(C(O)(c3ccccc3)c3ccccc3)CC2)cc1` (configuration not stated) [TERFENADINE], “Not Active”; for `C[C@@H](N)[C@H]1CC[C@H](C(=O)Nc2ccncc2)CC1` [Y-27632], “Not Active”.

The target of the next data set is T3, Endothelin-1 receptor (Homo sapiens, UniProt P25101). Also: in other assays of this panel Not Active means under 50% inhibition at 10 µM.
T3 sequence (P25101 whole entry): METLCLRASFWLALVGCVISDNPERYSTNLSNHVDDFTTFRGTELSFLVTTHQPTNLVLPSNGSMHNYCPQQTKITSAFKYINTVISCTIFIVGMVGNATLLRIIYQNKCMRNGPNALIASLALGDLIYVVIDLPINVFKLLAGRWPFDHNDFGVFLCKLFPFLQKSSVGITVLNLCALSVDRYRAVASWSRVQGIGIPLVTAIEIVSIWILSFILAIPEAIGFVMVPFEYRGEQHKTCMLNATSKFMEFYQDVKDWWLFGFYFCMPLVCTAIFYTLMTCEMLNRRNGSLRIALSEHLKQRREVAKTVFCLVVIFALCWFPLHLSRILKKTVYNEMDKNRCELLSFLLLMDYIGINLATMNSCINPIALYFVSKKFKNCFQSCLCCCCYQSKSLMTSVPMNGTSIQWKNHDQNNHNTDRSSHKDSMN
The format is cell membranes, Membrane. The settings on record: cho-k1.
`CC(=O)N1CCN(c2ccc(OCC3COC(Cn4ccnc4)(c4ccc(Cl)cc4Cl)O3)cc2)CC1` (configuration not stated) [KETOCONAZOLE]: the IC50 result is “Not Active”.
Same read-out and setting: for `CC(C)c1nc(CN(C)C(=O)N[C@H](C(=O)N[C@@H](Cc2ccccc2)C[C@H](O)[C@H](Cc2ccccc2)NC(=O)OCc2cncs2)C(C)C)cs1` [RITONAVIR] the value was “Not Active”.
In the case of `CC(C)(C)c1ccc(C(O)CCCN2CCC(C(O)(c3ccccc3)c3ccccc3)CC2)cc1` (configuration not stated) [TERFENADINE], the IC50 entry is reported as “Not Active”.
As to `C[C@@H](N)[C@H]1CC[C@H](C(=O)Nc2ccncc2)CC1` [Y-27632], the IC50 entry is listed as “Not Active”.

For the next data set, the target named is Cytochrome P450 2D6 (Homo sapiens, UniProt P10635). The settings on record: bti-tn-5b1-4. Also: in other assays of this panel Not Active means under 50% inhibition at 10 µM.
Cytochrome P450 2D6, sequence (P10635 whole entry): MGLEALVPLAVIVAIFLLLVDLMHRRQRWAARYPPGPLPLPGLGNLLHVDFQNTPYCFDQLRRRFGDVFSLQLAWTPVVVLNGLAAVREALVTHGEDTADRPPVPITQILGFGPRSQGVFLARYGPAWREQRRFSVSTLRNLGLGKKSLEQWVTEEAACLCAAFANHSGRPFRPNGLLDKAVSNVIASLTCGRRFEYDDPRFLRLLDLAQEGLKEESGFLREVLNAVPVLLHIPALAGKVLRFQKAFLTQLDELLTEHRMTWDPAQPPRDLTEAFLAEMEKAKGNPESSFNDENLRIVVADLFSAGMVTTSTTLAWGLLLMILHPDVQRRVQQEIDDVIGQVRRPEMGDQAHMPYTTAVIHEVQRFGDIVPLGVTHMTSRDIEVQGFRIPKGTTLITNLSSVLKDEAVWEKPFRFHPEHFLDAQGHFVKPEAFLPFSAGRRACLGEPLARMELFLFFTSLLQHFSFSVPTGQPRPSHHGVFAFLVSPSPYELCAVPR
Regarding `CC(C)(C)c1ccc(C(O)CCCN2CCC(C(O)(c3ccccc3)c3ccccc3)CC2)cc1` (configuration not stated) [TERFENADINE], the IC50 result is “Not Active” and the Ki entry is “Not Active”.
Regarding `C[C@@H](N)[C@H]1CC[C@H](C(=O)Nc2ccncc2)CC1` [Y-27632], the IC50 entry is “Not Active” and the Ki entry is “Not Active”.

Another data set addresses Protein phosphatase 3 catalytic subunit alpha (Homo sapiens, UniProt Q08209). Details: species or system Escherichia coli.
Settings: not given
Regarding `CC(=O)N1CCN(c2ccc(OCC3COC(Cn4ccnc4)(c4ccc(Cl)cc4Cl)O3)cc2)CC1` (configuration not stated) [KETOCONAZOLE], the IC50 entry is reported as “Not Active”.
On the same count and under the same terms, for `CC(C)c1nc(CN(C)C(=O)N[C@H](C(=O)N[C@@H](Cc2ccccc2)C[C@H](O)[C@H](Cc2ccccc2)NC(=O)OCc2cncs2)C(C)C)cs1` [RITONAVIR] the value was “Not Active”.
The same measure, in the same setting: for `CC(C)(C)c1ccc(C(O)CCCN2CCC(C(O)(c3ccccc3)c3ccccc3)CC2)cc1` (configuration not stated) [TERFENADINE] the value was “Not Active”.
The same measure, in the same setting: for `C[C@@H](N)[C@H]1CC[C@H](C(=O)Nc2ccncc2)CC1` [Y-27632] the value was “Not Active”.

The values are drawn from ChEMBL document CHEMBL1909046, “DrugMatrix in vitro pharmacology data”.
